Results: paper PMC8370991, “Structural basis for the inhibition of HTLV-1 integration inferred from cryo-EM deltaretroviral intasome structures” (Nature Communications, 2021)
Read-outs that look alike come from different tables or passages of the source.

Target: T1, recombinant HTLV-1 IN (Human T-cell leukemia virus 1, UniProt P03362)
T1 construct: made in house
Assay: In vitro integration strand transfer assay with HTLV-1 IN
Format: biochemical
Conditions: for HTLV-1 IN strand transfer activity (No drug = 100): INSTI at 634 nM; for IC50: read-out: HTLV-1 IN strand transfer IC50
Protocol: We used in vitro strand transfer assays to screen this small molecule library for its ability to inhibit recombinant HTLV-1 IN. The enzyme was incubated with an oligonucleotide vDNA donor mimic in the presence or absence of INSTIs and was allowed to react with a supercoiled plasmid mimicking target DNA. During the screening, the concentration of each compound was adjusted to 634 nM to provide optimal resolution of efficacy between well- and under-performing compounds.
The donor vDNA that mimics the 3′-processed LTR of HTLV-1 or STLV-1 DNA was preassembled by annealing the U5_S20Q_UP and U5_S20Q_B or MarB43_U5_S30UP or MarB43_U5_S30B oligonucleotides, respectively (Supplementary Table 4) in 100 mM Tris pH 7.4, 400 mM NaCl. For HTLV-1 IN, strand transfer reactions were conducted in a solution of 24.3 mM PIPES pH 6.0, 138.4 mM NaCl, 16.6 mM MgCl2, 5.8 μM ZnCl2, 12.7 mM DTT, 0.53 μM donor DNA and 4 μg of HTLV-1 IN[9],[39]. In brief, the reaction was incubated at RT for 15 min in the presence of an INSTI or dimethyl sulfoxide (DMSO) control and the reaction was started by the addition of 300 ng of pGEM-9Zf(-) supercoiled plasmid DNA. The reaction was incubated for 1 h at 37 °C and stopped by adding 0.5% SDS and 25 mM ethylenediaminetetraacetic acid (EDTA), pH 8.0.
Proteins were degraded by incubation with 30 μg of proteinase K (Roche) at 37 °C for 1 h. DNA was precipitated at −20 °C overnight in the presence of ethanol supplemented with 20 μg of glycogen and then resuspended in 1.5× agarose loading dye. The DNA products were separated by electrophoresis through 1.5% agarose gel and stained with ethidium bromide and imaged using the BioRad GelDox XR + imager. The data were analysed and the IC50 calculated as previously described. In brief, the DNA band that corresponds to the concerted integration product was quantified by densitometry in ImageLab 4.1 (Bio-Rad). All experiments were done in triplicate. Quantified data points were fitted to dose–response curves in Prism 9. The cumulative standard deviation for each drug was calculated as an average of the upper limit and lower limit values: Lowerlimit=IC50/10^logSE(IC50) Upperlimit=IC50×10^logSE(IC50)

T1 sequence (P03362 1168-1462): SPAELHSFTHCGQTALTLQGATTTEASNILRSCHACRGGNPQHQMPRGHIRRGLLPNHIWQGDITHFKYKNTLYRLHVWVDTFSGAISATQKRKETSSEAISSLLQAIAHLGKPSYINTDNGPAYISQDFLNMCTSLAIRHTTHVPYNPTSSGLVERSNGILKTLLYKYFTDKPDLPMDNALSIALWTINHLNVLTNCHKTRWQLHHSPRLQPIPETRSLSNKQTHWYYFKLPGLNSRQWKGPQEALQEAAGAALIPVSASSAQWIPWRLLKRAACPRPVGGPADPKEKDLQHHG

SMILES	HTLV-1 IN strand transfer activity (No drug = 100) (Replicate 1)	HTLV-1 IN strand transfer activity (No drug = 100) (Replicate 2)	HTLV-1 IN strand transfer activity (No drug = 100) (Replicate 3)	IC50 (Replicate 1)	IC50 (Replicate 2)	IC50 (Replicate 3)
O=C(NN1Cc2ccc(O)c(O)c2C1=O)c1cccc(O)c1O [XZ49, N-(6,7-dihydroxy-1-oxoisoindolin-2-yl)-2,3-dihydroxybenzamide]	94.3672%	88.3747%	109.808%			
O=C(NCc1ccc(F)cc1F)c1c(NCCO)c2cc(CCCCCO)cnc2n(O)c1=O [XZ439, N-(2,4-difluorobenzyl)-1-hydroxy-4-((2-hydroxyethyl)amino)-6-(5-hydroxypentyl)-2-oxo-1,2-dihydro-1,8-naphthyridine-3-carboxamide]	27.6089%	29.3463%	25.7676%	270 nM	239 nM	232 nM
O=C(NCc1ccc(F)cc1F)c1c(O)c2cccnc2n(O)c1=O [XZ351, N-(2,4-difluorobenzyl)-1,4-dihydroxy-2-oxo-1,2-dihydro-1,8-naphthyridine-3-carboxamide]	30.0691%	57.1529%	59.6295%			
O=C1c2c(ccc(O)c2O)CN1Cc1ccc(F)c(Cl)c1 [XZ90, 2-(3-chloro-4-fluorobenzyl)-6,7-dihydroxyisoindolin-1-one]	47.6981%	83.7072%	92.5665%			
O=C(O)/C(O)=C/C(=O)c1cc(OCc2ccccc2)cc(OCc2ccccc2)c1 [XZ320, (Z)-4-(3,5-bis(benzyloxy)phenyl)-2-hydroxy-4-oxobut-2-enoic acid, reference compound]	35.3455%	62.3815%	55.2426%			
O=C(NNC(=O)c1cccc(O)c1O)c1ccccc1O [XZ45, 2,3-dihydroxy-N'-(2-hydroxybenzoyl)benzohydrazide]	95.0641%	107.975%	100.183%			
COC(=O)c1c(Nc2ccc(-c3ccc(N)cc3)cc2)c2cccnc2n(O)c1=O [XZ456, methyl 4-((4'-amino-[1,1'-biphenyl]-4-yl)amino)-1-hydroxy-2-oxo-1,2-dihydro-1,8-naphthyridine-3-carboxylate]	112.032%	94.791%	89.3626%			
O=C(NNC(=O)c1cccc(O)c1O)c1cccc(O)c1O [XZ15, N'-(2,3-dihydroxybenzoyl)-2,3-dihydroxybenzohydrazide]	99.084%	89.5316%	92.2753%			
CN(C)S(=O)(=O)c1cc(O)c(O)c2c1CN(Cc1ccc(F)c(Cl)c1)C2=O [XZ259, 2-(3-chloro-4-fluorobenzyl)-6,7-dihydroxy-N,N-dimethyl-1-oxoisoindoline-4-sulfonamide]	63.0889%	67.971%	68.9907%			
CN(C)C(=O)c1nc(O)c(O)c2c1CCN(Cc1ccc(F)c(Cl)c1)C2=O [XZ235, 6-(3-chloro-4-fluorobenzyl)-3,4-dihydroxy-N,N-dimethyl-5-oxo-5,6,7,8-tetrahydro-2,6-naphthyridine-1-carboxamide]	50.5732%	55.8637%	62.5799%			
Nc1ccc(-c2ccc(Nc3cc(=O)n(O)c4ncccc34)cc2)cc1 [XZ460, 4-((4'-amino-[1,1'-biphenyl]-4-yl)amino)-1-hydroxy-1,8-naphthyridin-2(1H)-one]	91.7662%	81.7265%	81.1342%			
